Values after ≈ are worked out from the molar mass of the structure shown. Like-named read-outs stand apart in the source and are kept apart here. Where a SMILES comes first, the peptide text is derived from it. Bridges are numbered along the chain shown (N, C = ends). [ ]: non-standard residue; d: D form. The star is where a group is joined. Bip = N[C@@H](Cc1ccc(-c2ccccc2)cc1)C(=O)O; 2Nal = N[C@@H](Cc1ccc2ccccc2c1)C(=O)O; X1 = CC[C@H](C)CCCCC(=O)*; Dab = NCC[C@H](N)C(=O)O; Hexanoyl = CCCCCC(=O)*; AEEA = NCCOCCOCC(=O)O; Butyryl = CCCC(=O)*
Experiments:
E. coli ATCC 25922 = format: cell-based, Escherichia coli; conditions: MHB-II, inoculum 5 × 10^5 CFU/mL, 37 °C, 18–24 h, visual read-out, triplicate
Procedure: (§1) In the original report on S3(B), MIC experiments were carried out by using non-cation-adjusted MHB-I media. To this, bovine serum albumin (BSA) and acetic acid were added. The rationale for choosing a medium without cations is that cation-adjusted media (MHB-II) in some cases causes substantial inhibition of the activity of cationic peptides. Furthermore, some peptides are at risk of precipitation when diluted into MHB medium, which can be avoided via the addition of BSA and acetic acid. However, the use of MHB-II is favorable to imitate the in vivo conditions as much as possible. Both media were tested with and without the addition of BSA and acetic acid by trial and error. The use of pure MHB-II was compatible with S3(B) and its fatty acid analogues, and therefore was chosen for the MIC determinations. Noticeably, MHB-I with BSA and acetic acid led to precipitation of lipopeptides in the present work.
(§2) Cation-adjusted Mueller-Hinton broth (MHB-II) media (BD BBLTM Beef extract powder, BD BactoTMCasamino acids, and DIFCO soluble starch was from Becton, Dickinson and Company©, Franklin Lakes, NJ, USA). MHB media supplemented with 0.2% BSA was from Sigma Aldrich (St. Louis, MO, USA) and 0.01% acetic acid from VWR®. The 96 well plate cell-culture cluster, round-bottom, polypropylene plates, and V-shaped 96 well polypropylene plates were purchased from Corning® Inc., Costar®, Corning, NY, USA. Microseal® film was obtained from Bio-Rad Laboratories, Inc., Hercules, CA, USA. A VersaMaxTM Tunable Microplate Reader (Molecular Devices LLC, Sunnyvale, CA, USA) was used and the data were evaluated on a Softmax® Pro (Molecular Devices LLC).
(§3) The MIC experiments were performed according to a protocol adapted from Wiegand et al., with minor modifications. The MICs were determined in triplicate. The peptides were dissolved in Milli-Q water to produce 10 mg/mL stock solutions in small glass containers. The bacterial isolates to be tested were streaked onto agar plates to obtain single colonies, and the plates were incubated at 37 °C for 18–24 h. The strains tested were S. aureus ATCC 29213, P. aeruginosa ATCC 27853, E. coli ATCC 25922, A. baumannii ATCC 19606, and K. pneumonia ATCC 13883. Test compounds were prepared in 2-fold dilutions in 50 μL volumes in polypropylene microtiter plates. Bacterial cultures grown to OD600 = 0.1–0.4 were diluted to a desired OD600 of 0.001–0.002 corresponding to 1 × 10^6 CFU/mL. Next, 50 μL bacterial suspension was added to the microtiter plates, giving a final bacterial inoculum of 5 × 10^5 CFU/mL per well. The plates were incubated at 37 °C for 18–24 h. […] The MIC values were visually evaluated, and the MIC was set to the lowest concentration […] based on triplicate measurements. […]

K. pneumonia ATCC 13883 = format: cell-based, Klebsiella pneumoniae; conditions: K. pneumoniae ATCC 13883; MHB-II, inoculum 5 × 10^5 CFU/mL, 37 °C, 18–24 h, visual read-out, triplicate
Procedure: as §1, §2, §3

human erythrocytes = assay: Hemolysis of red blood cells; conditions: 1 h; for %H, percent hemolytic activity against red blood cells at 150 μM: human erythrocytes, 0.5% v/v RBC suspension in PBS, peptide 150 μM, 37 °C, absorbance 414 nm, melittin positive control, triplicate
Procedure: The hemolysis experiments were performed according to the protocol described in Reference. The peptides were tested at concentrations from 2.35–150 μM, using melittin as positive control and PBS as negative control. One premade tablet of PBS was dissolved in 200 mL Milli-Q water. The solution was kept in the refrigerator for a maximum of two days. The day before the test, the positive control wells of the 96 well polypropylene plates were precoated with 150 μL of melittin 5 μM solution in PBS. The solution was prepared in Protein LoBind Eppendorf tubes. The day of the test, the solution was discarded and the wells were washed three times with 150 μL PBS. A melittin 2.50 μM solution in PBS was prepared in Protein LoBind Eppendorf tubes—500 μL for every plate to be used. The mass of the peptide needed to reach a final concentration of 300 μM (to start testing down from 150 μM) was calculated, since a volume of 500 μL was desirable. […] The peptides were dissolved in PBS and tested in triplicate.
In a 96 well polypropylene plate, 150 μL of peptide solution was transferred to three wells in Row A. Therefore, each plate could accommodate up to four peptides. A 2-fold serial dilution of the peptides was obtained by transferring 75 μL of the solutions from Row A to the corresponding wells in Row B, mixing a couple of times. From Row B, 75 μL was transferred to Row C and so on until Row G, where 75 μL was discarded after mixing. Volumes of 75 μL melittin (2.50 μM) was transferred to the positive control wells in H1–H6. Preparation of the RBC suspension: 1 mL of whole blood was transferred to a cryotube with 3 mL of PBS, and then it was gently mixed and centrifuged for 8 min at 3000 rpm. The supernatant was discarded, and the process was repeated twice; with 4 mL at 3000 rpm and 4 mL at 4000 rpm, respectively. From the final RBC pellet, 40 μL was transferred to 8 mL of PBS (multiplied by the number of test plates needed). This corresponded to a 0.5% v/v RBC suspension. The suspension was gently mixed and transferred into a CAPPOrigami reservoir. Using a multichannel pipette, 75 μL of the suspension was transferred into each well and mixed in the direction of increasing concentration. The control wells were mixed separately. The plates were covered with BioradMicroseal foil and incubated at 37 °C for 1 h. The plates (maximum two) were centrifuged for 10 min at 4000 rpm, followed by transferring of supernatant (60 μL) from each well into the corresponding wells in a clear ELISA plate. The absorbance (A) of each well was measured at λ = 414 nm using the software program Softmax(R) Pro.

[1] = Hydrophobicity by analytical RP-HPLC (%B at peak elution); format: physicochemical; conditions: chromatographic, percentage of mobile phase B at the peak elution time
Text: To investigate the effect of attaching fatty acids to a macrocycle, fatty acid tails of different lengths were used. When the carbon chain was elongated, the hydrophobicity of the peptide was increased gradually. Herein, the hydrophobicity is expressed as the percentage of mobile phase B at the peak elution time on an RP-HPLC system.

A. baumannii ATCC 19606 = format: cell-based, Acinetobacter baumannii; conditions: MHB-II, inoculum 5 × 10^5 CFU/mL, 37 °C, 18–24 h, visual read-out, triplicate
Procedure: as §1, with “The use of pure MHB-II was compatible with S3(B) and its fatty acid analogues, and therefore was chosen for the MIC determinations. Noticeably, MHB-I with BSA and acetic acid led to precipitation of lipopeptides in the present work.” left out
(§4) Cation-adjusted Mueller-Hinton broth (MHB-II) media (BD BBLTM Beef extract powder, BD BactoTMCasamino acids, and DIFCO soluble starch was from Becton, Dickinson and Company©, Franklin Lakes, NJ, USA). […] A VersaMaxTM Tunable Microplate Reader (Molecular Devices LLC, Sunnyvale, CA, USA) was used and the data were evaluated on a Softmax® Pro (Molecular Devices LLC).
(§5) The MIC experiments were performed according to a protocol adapted from Wiegand et al., with minor modifications. The MICs were determined in triplicate. […] The MIC values were visually evaluated, and the MIC was set to the lowest concentration […] based on triplicate measurements. […]

P. aeruginosa ATCC 27853 [2] = format: cell-based, Pseudomonas aeruginosa; conditions: MHB-II, inoculum 5 × 10^5 CFU/mL, 37 °C, 18–24 h, visual read-out, triplicate
Procedure: as §1, with “The use of pure MHB-II was compatible with S3(B) and its fatty acid analogues, and therefore was chosen for the MIC determinations. Noticeably, MHB-I with BSA and acetic acid led to precipitation of lipopeptides in the present work.” left out
as §4, §5

P. aeruginosa ATCC 27853 [3] = conditions: for log reduction of cell count within first hour of treatment: 1 h, MHB-II, 37 °C, shaking, n = 3
Procedure: The MIC constitutes a limited measure for antimicrobial activity. It indicates whether or not AMPs in different concentrations are able to prevent visible growth of bacteria.
Time-kill experiments were performed on balanced exponentially growing cultures of P. aeruginosa ATCC 27853. We used balanced cultures as described in Oddo et al.. Briefly, overnight cultures were prepared in MHB-II broth at 37 °C with shaking. Overnight cultures were back-diluted and grown exponentially for no less than 8–10 generations before experimentation. When experiments were done, exponentially growing cultures were back-diluted to an OD600 = 0.0005 approximately 5 × 10^5 CFU, into fresh MHB-II heated to 37 °C. Samples (250 μL) were taken at time points 0, 1, 3, 5, and 24 h. Samples were spun down at 8000× g for 5 min and washed in 1 mL of NaCl 0.9% before being spun down again and re-suspended in 250 μL NaCl 0.9%. From this, 10-fold dilution series were prepared and 10 μL samples were spot-plated in triplicate onto LB-agar. From the undiluted sample, 100 μL samples were also plated, i.e., giving a detection limit of 10 CFU/mL.

S. aureus ATCC 29213 = assay: microbe, parasite or virus in culture; format: cell-based, Staphylococcus aureus; conditions: Staphylococcus aureus, ATCC29213, read-out: Minimum inhibitory concentration, SA
Procedure: as §1, with “The use of pure MHB-II was compatible with S3(B) and its fatty acid analogues, and therefore was chosen for the MIC determinations. Noticeably, MHB-I with BSA and acetic acid led to precipitation of lipopeptides in the present work.” left out
as §4, §5

CCCC(=O)NCC[C@@H]1NC(=O)[C@H](CCN)NC(=O)[C@H](CCCNC(=N)N)NC(=O)[C@H](Cc2ccc3ccccc3c2)NC(=O)[C@H](CCN)NC(=O)[C@H](CC(N)=O)NC(=O)[C@H](CCN)NC(=O)[C@H](Cc2ccc3ccccc3c2)NC(=O)COCCOCCNC1=O [(C4)^5] (cyclo([Dab][2Nal]R[Dab][Dab](Butyryl)[AEEA][2Nal][Dab]N))
Minimum inhibitory concentration, EC (E. coli ATCC 25922): 64 µg/mL (≈ 50 µM) | Minimum inhibitory concentration, KP (K. pneumonia ATCC 13883): >64 µg/mL | %H, percent hemolytic activity against red blood cells at 150 μM (human erythrocytes): 5% | %H, percent hemolytic activity against red blood cells at 150 μM (human erythrocytes; listed as (C4)^7): 4% | %B at peak of elution in analytical HPLC (hydrophobicity) [1]: 62% | %B at peak of elution in analytical HPLC (hydrophobicity) ([1]; listed as (C4)^7): 64%

CCCCCC(=O)NCC[C@@H]1NC(=O)[C@H](CCN)NC(=O)[C@H](CCCNC(=N)N)NC(=O)[C@H](Cc2ccc3ccccc3c2)NC(=O)[C@H](CCN)NC(=O)[C@H](CC(N)=O)NC(=O)[C@H](CCN)NC(=O)[C@H](Cc2ccc3ccccc3c2)NC(=O)COCCOCCNC1=O [(C6)^5] (cyclo([Dab][2Nal]R[Dab][Dab](Hexanoyl)[AEEA][2Nal][Dab]N))
Minimum inhibitory concentration, EC (E. coli ATCC 25922): 32 µg/mL (≈ 24.5 µM) | Minimum inhibitory concentration, KP (K. pneumonia ATCC 13883): >64 µg/mL | Minimum inhibitory concentration, AB (A. baumannii ATCC 19606): 64 µg/mL (≈ 48.9 µM) | %H, percent hemolytic activity against red blood cells at 150 μM (human erythrocytes): 13% | %H, percent hemolytic activity against red blood cells at 150 μM (human erythrocytes; listed as (C6)^7): 8% | %B at peak of elution in analytical HPLC (hydrophobicity) [1]: 65% | %B at peak of elution in analytical HPLC (hydrophobicity) ([1]; listed as (C6)^7): 69% | Minimum inhibitory concentration, PA (P. aeruginosa ATCC 27853 [2]): 16 µg/mL (≈ 12.2 µM)

CC[C@H](C)CCCCC(=O)N[C@@H](CCN)C(=O)N[C@H](C(=O)N[C@@H](CCN)C(=O)N[C@H]1CCNC(=O)[C@H]([C@@H](C)O)NC(=O)[C@H](CCN)NC(=O)[C@H](CCN)NC(=O)[C@H](CC(C)C)NC(=O)[C@@H](CC(C)C)NC(=O)[C@H](CCN)NC1=O)[C@@H](C)O [Colistin, reference compound] (X1-[Dab]T[Dab][Dab][Dab][dL]L[Dab][Dab]T; lactam 4-C (inferred); N-terminus assumed)
Minimum inhibitory concentration, EC (E. coli ATCC 25922): 0.25 µg/mL (≈ 0.214 µM) | Minimum inhibitory concentration, KP (K. pneumonia ATCC 13883): 0.5 µg/mL (≈ 0.428 µM) | log reduction of cell count within first hour of treatment (P. aeruginosa ATCC 27853 [3]; 5 × MIC ((C8)^5 40 μg/mL; colistin 2.5 μg/mL)): 4.5 log | cell count / growth after 24 h (P. aeruginosa ATCC 27853 [3]; 5 × MIC ((C8)^5 40 μg/mL; colistin 2.5 μg/mL), 24 h, detection limit 10 CFU/mL): No growth

N=C(N)NCCC[C@@H]1NC(=O)[C@H](Cc2ccc3ccccc3c2)NC(=O)[C@H](CCN)NC(=O)[C@H](CC(N)=O)NC(=O)[C@H](CCN)NC(=O)[C@H](Cc2ccc3ccccc3c2)NC(=O)COCCOCCNC(=O)[C@H](Cc2ccc(-c3ccccc3)cc2)NC(=O)[C@H](CCN)NC1=O [S3(B)] (cyclo([Dab][2Nal]R[Dab][Bip][AEEA][2Nal][Dab]N))
log reduction of cell count within first hour of treatment (P. aeruginosa ATCC 27853 [3]; 1 × MIC (8 μg/mL)): 2.5 log | %H, percent hemolytic activity against red blood cells at 150 μM (human erythrocytes): 77% | HD50 (hemolysis) (human erythrocytes; red cells of human): 69 µM | %B at peak of elution in analytical HPLC (hydrophobicity) [1]: 71%

CN[C@H](CC(C)C)C(=O)N[C@H]1C(=O)N[C@@H](CC(N)=O)C(=O)N[C@H]2C(=O)N[C@H]3C(=O)N[C@H](C(=O)N[C@H](C(=O)O)c4cc(O)cc(O)c4-c4cc3ccc4O)[C@H](O)c3ccc(c(Cl)c3)Oc3cc2cc(c3O[C@@H]2O[C@H](CO)[C@@H](O)[C@H](O)[C@H]2O[C@H]2C[C@](C)(N)[C@H](O)[C@H](C)O2)Oc2ccc(cc2Cl)[C@H]1O [Vancomycin, reference compound]
MIC (S. aureus ATCC 29213): 0.5 µg/mL (≈ 0.345 µM)

Reference: PMC7461568, “Novel Cyclic Lipopeptide Antibiotics: Effects of Acyl Chain Length and Position” (International Journal of Molecular Sciences, 2020)
